Laboratory results as given in patent US20260308172A1, “TRICYCLIC COMPOUNDS FOR TREATMENT OF BACTERIAL INFECTIONS” (priority 2023, published 2026).
≈ marks a conversion by molar mass, not a printed value.

What was measured:
[1] = test system: Escherichia coli ATCC 25922; test: Minimal Inhibitory Concentration (MIC) assay, Escherichia coli ATCC 25922; type: cell-based; conditions: ATCC25922, 20 h, read-out: MIC Escherichia coli ATCC25922
Method: (§1) The antibacterial activity of the compounds of the present invention was evaluated against the commonly used quality control strain Escherichia coli ATCC 25922 and the rifampin-resistant mutant strain Klebsiella pneumonia ATCC 43816. Both were originally derived from human clinical samples and are available from ATCC (American Type Culture Collection). The in vitro potency of compounds to inhibit Escherichia coli (ATCC 25922) and Klebsiella pneumonia (ATCC 43816) growth was assessed by the MIC (Minimal Inhibitory Concentration) broth dilution method. Specifically compound dilutions were prepared from 10 mM DMSO stock solutions as follows: i) serial 2-fold dilution in 20 μL DMSO were prepared in a master plate (Greiner, Cat No: 651201), ii) 180 μL sterile distilled water was added to each aliquot and iii) 10 μL diluted compounds were transferred into a new assay plate (Costar, 3599).
(§2) Vials of each test microorganisms were maintained frozen in the vapor phase of a liquid nitrogen freezer. Single-use frozen vials of the two strains Escherichia coli ATCC 25922 (KWIKSTIK, 0335K) and Klebsiella pneumonia ATCC 43816, with predetermined CFU/mL, were taken out from the freezer, thawed at room temperature, and diluted in Cation-Adjusted Mueller Hinton Broth (CAMHB) to achieve a final inoculum of 5×10^5 CFU/mL. 90 μL bacteria containing broth was dispensed to the assay plate containing the pre-dispensed compound dilutions and mixed by pipetting 5 times.
(§3) Then the assay plates were incubated for 20 hours at 35° C. in ambient air. Following incubation, the MIC (μg/mL), the lowest concentration of drug that inhibits visible growth of the microorganism was read with the help of a magnification mirror and recorded.

[2] = test system: Klebsiella pneumonia ATCC 43816; test: Minimal Inhibitory Concentration (MIC) assay, Klebsiella pneumonia ATCC 43816; type: cell-based; conditions: Klebsiella pneumoniae, ATCC43816, 20 h, read-out: MIC Klebsiella pneumoniae ATCC43816
Method: as §1, §2, §3

[3] = Human Microsome Stability Assay; type: in vitro ADME; conditions: 1 μM compound, 0.5 mg/mL liver microsomal protein, 1 mM NADPH, pH 7.4, 37° C., 0-30 minutes; for CLint scaled at 1 µM: human, liver microsomes, read-out: Clearance of Human microsome
Method: The human microsomal stability assay is used for early assessment of metabolic stability of compounds of present invention in human liver microsomes. Human liver microsomes (Cat. NO.: 452117, Corning, USA) were pre-incubated with test compound for 10 minutes at 37° C. in 100 mM potassium phosphate buffer, pH 7.4. The reactions were initiated by adding NADPH regenerating system. The final incubation mixtures contained 1 μM compound, 0.5 mg/mL liver microsomal protein, 1 mM MgCl2 and 1 mM NADPH in 100 mM potassium phosphate buffer, pH 7.4. After incubation times of 0, 3, 6, 9, 15 and 30 minutes at 37° C., 300 μL of cold acetonitrile (including internal standard) was added to 100 μL incubation mixture to terminate the reaction. Following precipitation and centrifugation, the amount of compound remaining in the samples were determined by LC-MS/MS. Controls of no NADPH regenerating system at zero and 30 minutes were also prepared and analyzed.

SMILES: NCCCNC(=O)[C@H]1CC[C@H](C(F)(F)c2cc(Cl)nc(N3CCN(S(=O)(=O)c4ccc5c(c4)OC[C@H]4[C@H](CO)OC(=O)N54)CC3)c2)CC1 [Example 049, 4-[[2-[4-[[(3R,3aS)-3-(hydroxymethyl)-1-oxo-3a,4-dihydro-3H-oxazolo[4,3-c][1,4]benzoxazin-7-yl]sulfonyl]piperazin-1-yl]-6-chloro-4-pyridyl]-difluoro-methyl]-N-(3-aminopropyl)cyclohexanecarboxamide]
- MIC [1]: 0.3 µg/mL (≈ 0.421 µM)
- MIC [2]: 0.29 µg/mL (≈ 0.407 µM)
- Clearance of Human microsome [3]: 6.2 mL/min/kg

SMILES: O=C1O[C@@H](CO)[C@H]2COc3cc(S(=O)(=O)N4CCN(c5cc(C(F)(F)C6CCNCC6)cc(Cl)n5)CC4)ccc3N12 [Example 028, (3R,3aR)-7-[4-[6-chloro-4-[difluoro(4-piperidyl)methyl]-2-pyridyl]piperazin-1-yl]sulfonyl-3-(hydroxymethyl)-3a,4-dihydro-3H-oxazolo[4,3-c][1,4]benzoxazin-1-one]
- MIC [1]: 0.57 µg/mL (≈ 0.928 µM)
- MIC [2]: 0.57 µg/mL (≈ 0.928 µM)
- CLint scaled at 1 µM [3]: 10.5 mL/min/kg

SMILES: O=C1O[C@@H](CO)[C@H]2COc3cc(S(=O)(=O)N4CCN(c5cc(C(F)(F)C6CC7(CNC7)C6)cc(Cl)n5)CC4)ccc3N12 [Example 039, (3R,3aR)-7-[4-[4-[2-azaspiro[3.3]heptan-6-yl(difluoro)methyl]-6-chloro-2-pyridyl]piperazin-1-yl]sulfonyl-3-(hydroxymethyl)-3a,4-dihydro-3H-oxazolo[4,3-c][1,4]benzoxazin-1-one]
- MIC [1]: 0.87 µg/mL (≈ 1.39 µM)
- MIC [2]: 1.16 µg/mL (≈ 1.85 µM)
- Clearance of Human microsome [3]: 6.2 mL/min/kg

SMILES: C[N@@+]1(CC(N)=O)CCC[C@H]1C(=O)N[C@H]1CC[C@H](C(F)(F)c2cc(Cl)nc(N3CCN(S(=O)(=O)c4ccc5c(c4)OC[C@@H]4[C@H](CN)OC(=O)N54)CC3)c2)CC1 [Example 060, (1S,2S)—N-[4-[[2-[4-[[(3S,3aR)-3-(aminomethyl)-1-oxo-3a,4-dihydro-3H-oxazolo[4,3-c][1,4]benzoxazin-7-yl]sulfonyl]piperazin-1-yl]-6-chloro-4-pyridyl]-difluoro-methyl]cyclohexyl]-1-(2-amino-2-oxo-ethyl)-1-methyl-pyrrolidin-1-ium-2-carboxamide; chloride]
- MIC [1]: 0.51 µg/mL
- MIC [2]: 0.51 µg/mL
- Clearance of Human microsome [3]: 6.2 mL/min/kg

SMILES: O=C1O[C@@H](CO)[C@@H]2COc3cc(S(=O)(=O)N4CCN(c5cc(C(F)(F)C6CCNCC6)cc(Cl)n5)CC4)ccc3N12 [Example 038, (3R,3aS)-7-[4-[6-chloro-4-[difluoro(4-piperidyl)methyl]-2-pyridyl]piperazin-1-yl]sulfonyl-3-(hydroxymethyl)-3a,4-dihydro-3H-oxazolo[4,3-c][1,4]benzoxazin-1-one]
- MIC [1]: 0.57 µg/mL (≈ 0.928 µM)
- MIC [2]: 0.57 µg/mL (≈ 0.928 µM)
- CLint scaled at 1 µM [3]: 11.1 mL/min/kg

SMILES: O=C1O[C@H](CO)[C@H]2COc3cc(S(=O)(=O)N4CCN(c5cc(C(F)(F)C6CCNCC6)cc(Cl)n5)CC4)ccc3N12 [Example 037, (3S,3aR)-7-[4-[6-chloro-4-[difluoro(4-piperidyl)methyl]-2-pyridyl]piperazin-1-yl]sulfonyl-3-(hydroxymethyl)-3a,4-dihydro-3H-oxazolo[4,3-c][1,4]benzoxazin-1-one]
- MIC [1]: 1.1 µg/mL (≈ 1.79 µM)
- MIC [2]: 1.14 µg/mL (≈ 1.86 µM)
- CLint scaled at 1 µM [3]: 10.9 mL/min/kg

SMILES: NCC(=O)NCC(=O)N1CCC(C(F)(F)c2cc(Cl)nc(N3CCN(S(=O)(=O)c4ccc5c(c4)OC[C@@H]4[C@H](CO)OC(=O)N54)CC3)c2)CC1 [Example 057, N-[2-[4-[[2-[4-[[(3R,3aR)-3-(hydroxymethyl)-1-oxo-3a,4-dihydro-3H-oxazolo[4,3-c][1,4]benzoxazin-7-yl]sulfonyl]piperazin-1-yl]-6-chloro-4-pyridyl]-difluoro-methyl]-1-piperidyl]-2-oxo-ethyl]-2-amino-acetamide]
- MIC [1]: 0.66 µg/mL (≈ 0.906 µM)
- MIC [2]: 0.66 µg/mL (≈ 0.906 µM)
- CLint scaled at 1 µM [3]: 11.3 mL/min/kg

SMILES: NC1CCC(Oc2cc(Cl)nc(N3CCN(S(=O)(=O)c4ccc5c(c4)OCC4C(N)CC(=O)N54)CC3)c2)CC1 (stereo not drawn) [Example 043, 3-Amino-7-[4-[4-(4-aminocyclohexoxy)-6-chloro-2-pyridyl]piperazin-1-yl]sulfonyl-2,3,3a,4-tetrahydropyrrolo[2,1-c][1,4]benzoxazin-1-one]
- MIC [1]: 4.3 µg/mL (≈ 7.45 µM)
- MIC [2]: 8.64 µg/mL (≈ 15 µM)
- Clearance of Human microsome [3]: 6.2 mL/min/kg

SMILES: NC(=O)C[N+]1(CCNC(=O)[C@H]2CC[C@H](C(F)(F)c3cc(Cl)nc(N4CCN(S(=O)(=O)c5ccc6c(c5)OC[C@@H]5[C@H](CO)OC(=O)N65)CC4)c3)CC2)CCCC1.[Cl-] [Example 063, 4-[[2-[4-[[(3R,3aR)-3-(hydroxymethyl)-1-oxo-3a,4-dihydro-3H-oxazolo[4,3-c][1,4]benzoxazin-7-yl]sulfonyl]piperazin-1-yl]-6-chloro-4-pyridyl]-difluoro-methyl]-N-[2-[1-(2-amino-2-oxo-ethyl)pyrrolidin-1-ium-1-yl]ethyl]cyclohexanecarboxamide; chloride]
- MIC [1]: 2 µg/mL
- MIC [2]: 2.01 µg/mL
- CLint scaled at 1 µM [3]: 10.2 mL/min/kg

SMILES: NCCN1CCC(C(F)(F)c2cc(Cl)nc(N3CCN(S(=O)(=O)c4ccc5c(c4)OC[C@@H]4[C@H](CO)OC(=O)N54)CC3)c2)CC1 [Example 055, (3R,3aR)-7-[4-[4-[[1-(2-aminoethyl)-4-piperidyl]-difluoro-methyl]-6-chloro-2-pyridyl]piperazin-1-yl]sulfonyl-3-(hydroxymethyl)-3a,4-dihydro-3H-oxazolo[4,3-c][1,4]benzoxazin-1-one]
- MIC [1]: 0.3 µg/mL (≈ 0.457 µM)
- MIC [2]: 0.3 µg/mL (≈ 0.457 µM)
- CLint scaled at 1 µM [3]: 7.8 mL/min/kg

SMILES: NCCN(CCN)CC(=O)N1CCC(C(F)(F)c2cc(Cl)nc(N3CCN(S(=O)(=O)c4ccc5c(c4)OC[C@@H]4[C@H](CO)OC(=O)N54)CC3)c2)CC1 [Example 052, (3R,3aR)-7-[4-[4-[[1-[2-[bis(2-aminoethyl)amino]acetyl]-4-piperidyl]-difluoro-methyl]-6-chloro-2-pyridyl]piperazin-1-yl]sulfonyl-3-(hydroxymethyl)-3a,4-dihydro-3H-oxazolo[4,3-c][1,4]benzoxazin-1-one]
- MIC [1]: 0.68 µg/mL (≈ 0.898 µM)
- MIC [2]: 1.36 µg/mL (≈ 1.8 µM)
- CLint scaled at 1 µM [3]: 6.4 mL/min/kg

SMILES: C[N@+]1(CC(N)=O)CCC[C@H]1C(=O)N[C@H]1CC[C@H](C(F)(F)c2cc(Cl)nc(N3CCN(S(=O)(=O)c4ccc5c(c4)OC[C@@H]4[C@H](CN)OC(=O)N54)CC3)c2)CC1 [Example 061, (1R,2S)—N-[4-[[2-[4-[[(3S,3aR)-3-(aminomethyl)-1-oxo-3a,4-dihydro-3H-oxazolo[4,3-c][1,4]benzoxazin-7-yl]sulfonyl]piperazin-1-yl]-6-chloro-4-pyridyl]-difluoro-methyl]cyclohexyl]-1-(2-amino-2-oxo-ethyl)-1-methyl-pyrrolidin-1-ium-2-carboxamide;chloride]
- MIC [1]: 0.68 µg/mL
- MIC [2]: 0.34 µg/mL
- Clearance of Human microsome [3]: 6.2 mL/min/kg

SMILES: NCCC(=O)N1CCC(C(F)(F)c2cc(Cl)nc(N3CCN(S(=O)(=O)c4ccc5c(c4)OC[C@@H]4[C@H](CO)OC(=O)N54)CC3)c2)CC1 [Example 054, (3R,3aR)-7-[4-[4-[[1-(3-aminopropanoyl)-4-piperidyl]-difluoro-methyl]-6-chloro-2-pyridyl]piperazin-1-yl]sulfonyl-3-(hydroxymethyl)-3a,4-dihydro-3H-oxazolo[4,3-c][1,4]benzoxazin-1-one]
- MIC [1]: 0.62 µg/mL (≈ 0.905 µM)
- MIC [2]: 0.62 µg/mL (≈ 0.905 µM)
- CLint scaled at 1 µM [3]: 6.4 mL/min/kg

SMILES: O=C1O[C@H](CO)[C@@H]2COc3cc(S(=O)(=O)N4CCN(c5cc(C(F)(F)C6CCCNC6)cc(Cl)n5)CC4)ccc3N12 (relative stereo) [Example 033]
- MIC [1]: 1 µg/mL (≈ 1.63 µM)
- MIC [2]: 1.55 µg/mL (≈ 2.52 µM)
- CLint scaled at 1 µM [3]: 13.6 mL/min/kg

SMILES: Cc1cc(C(F)(F)F)nc(N2CCN(S(=O)(=O)c3ccc4c(c3)OC[C@H]3[C@@H](CN5CC(CN)C5)OC(=O)N43)CC2)n1 [Example 026, (3R,3aS)-3-[[3-(aminomethyl)azetidin-1-yl]methyl]-7-[4-[4-methyl-6-(trifluoromethyl)pyrimidin-2-yl]piperazin-1-yl]sulfonyl-3a,4-dihydro-3H-oxazolo[4,3-c][1,4]benzoxazin-1-one]
- MIC [1]: 1.1 µg/mL (≈ 1.84 µM)
- MIC [2]: 1.67 µg/mL (≈ 2.79 µM)
- CLint scaled at 1 µM [3]: 10.8 mL/min/kg
